Experimental data taken from PubChem BioAssay (NCI).
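Tested at 5 concentrations; 48 h exposure; 96-well plates; endpoints linearly interpolated, else capped at highest concentration. TGI marks complete inhibition of growth.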

What was measured:
Test in all cases: NCI tumour cell line growth inhibition, 48 h
HOP-62 NSCLC = test system: HOP-62 NSCLC
IGROV1 ovarian = test system: IGROV1 ovarian
MDA-MB-231 breast = test system: MDA-MB-231 breast
NCI-H226 lung = test system: NCI-H226 lung
PC-3 prostate = test system: PC-3 prostate
SF-539 CNS = test system: SF-539 CNS
SR leukemia = test system: SR leukemia
UACC-257 melanoma = test system: UACC-257 melanoma
SNB-19 CNS = test system: SNB-19 CNS
SF-295 CNS = test system: SF-295 CNS

Row | SMILES | TGI (HOP-62 NSCLC) | TGI (IGROV1 ovarian) | TGI (MDA-MB-231 breast) | TGI (NCI-H226 lung) | TGI (PC-3 prostate) | TGI (SF-539 CNS) | TGI (SR leukemia) | TGI (UACC-257 melanoma) | TGI (SNB-19 CNS) | TGI (SF-295 CNS)
1 | COc1ccccc1NCC(=O)Nn1c(C)nc2ccc(S(=O)(=O)Nc3ccccc3OC)cc2c1=O | > 100 µM | > 100 µM | > 100 µM | > 100 µM | > 100 µM | > 100 µM | > 100 µM | > 100 µM | > 100 µM | > 100 µM
2 | C=C1c2nc3ccccc3n2C=C(c2ccc(OC)cc2)N1c1ccc(OCCN2CCOCC2)cc1 | > 100 µM | > 100 µM | > 100 µM | > 100 µM | > 100 µM | > 100 µM | > 55.2 µM | 17.6 µM | > 100 µM | > 100 µM
3 | C#CCCCC(=O)N(C(=O)CS(=O)CC)c1ccccc1 (stereo not given) | > 100 µM | > 100 µM | > 100 µM | > 100 µM | > 100 µM | > 100 µM | > 100 µM | > 100 µM | > 100 µM | > 100 µM
4 | Cc1nc2c(=O)[nH]c3ccc(Cl)cc3c2o1 | > 100 µM | > 100 µM | > 100 µM | > 100 µM | > 100 µM | > 100 µM | > 100 µM | > 100 µM | > 100 µM | > 100 µM
5 | CN(C)c1ccc(/C=c2/c3cc([N+](=O)[O-])ccc3n3c2cc(-c2ccccc2)[n+]3C)cc1 | 10.1 µM | 2.29 µM | 2.75 µM | 36 µM | 7.27 µM | 3.6 µM | 3.02 µM | – | 3.84 µM | 7.51 µM
6 | CCOP(=O)(OCC)C(Nc1ccc(F)cc1)c1ccccc1 (stereo not given) | > 100 µM | > 100 µM | > 100 µM | > 100 µM | > 100 µM | > 100 µM | > 100 µM | > 100 µM | > 100 µM | > 100 µM
7 | CC(=O)OCC1OC(N2C(S)=C(C#N)C(c3ccco3)C(C(C)=O)=C2c2ccccc2)C(OC(C)=O)C(OC(C)=O)C1OC(C)=O (stereo not given) | 45.1 µM | > 100 µM | > 100 µM | > 100 µM | > 100 µM | > 100 µM | > 100 µM | > 100 µM | > 100 µM | 94 µM
8 | COC(=O)C(Cc1nc2ccccc2[nH]c1=O)C(=O)C(=O)Nc1cc(C(F)(F)F)ccc1Cl (stereo not given) | 35.1 µM | 25.3 µM | 52.5 µM | 35.1 µM | 34.4 µM | – | > 100 µM | > 100 µM | – | 71.2 µM
9 | CC(C)N(C(C)C)P(OCCC#N)OC1CC(n2cnc3c(=O)[nH]cnc32)OC1COC(=O)NCCCCCCNC(=O)OC(C)(C)c1ccc(-c2ccccc2)cc1 (stereo not given) | 44.2 µM | 38.4 µM | – | 55.2 µM | – | 44.3 µM | – | 30.3 µM | 57.8 µM | > 100 µM
10 | CC1CC[C@@]2(OC1)OC1C[C@H]3[C@@H]4CCC5CC(O)CC[C@]5(C)[C@H]4C/C(=N\N(C)C)[C@]3(C)C1[C@@H]2C (stereo not given in full) | 54.7 µM | > 100 µM | 50.2 µM | > 100 µM | 84.6 µM | 60.9 µM | 60.6 µM | > 100 µM | 88.4 µM | –
11 | CC1(C)CC[C@]2(C(=O)O)[C@H](O)C[C@]3(C)C(=CC[C@@H]4[C@@]5(C)CC[C@H](OC6OC(C(=O)O)C(O)C(O)C6O)C(C)(C)[C@@H]5CC[C@]43C)[C@@H]2C1 (stereo not given in full) | > 100 µM | > 100 µM | – | > 100 µM | > 100 µM | – | 46.7 µM | > 100 µM | > 100 µM | > 100 µM
12 | CCCCNC(=S)Nc1nc(C(=O)NNC(=O)c2ccccc2)cs1 | 42.9 µM | 40.6 µM | 29 µM | 67.8 µM | 39.7 µM | – | > 100 µM | 37 µM | – | 33.9 µM
13 | NCCCC[C@H](N)C(=O)Nc1ccc(-c2nc3ccccc3s2)cc1Cl | 31.7 µM | 22.7 µM | 26.6 µM | 4.62 µM | 31.2 µM | – | – | 32.4 µM | 32.9 µM | 10.2 µM
14 | O=C1N[C@@H](COc2ccc(C=Nc3ccc(CCc4ccc(N=Cc5ccc(OC[C@@H]6COC(=O)N6)cc5)cc4)cc3)cc2)CO1 | > 100 µM | > 100 µM | > 100 µM | > 100 µM | > 100 µM | – | > 100 µM | > 100 µM | > 100 µM | > 100 µM
15 | c1ccc(CCn2cncn2)cc1 | > 100 µM | > 100 µM | – | > 100 µM | – | > 100 µM | > 100 µM | > 100 µM | > 100 µM | > 100 µM
16 | CC[C@H](C)C1=C(OC(C)=O)[N@+]2([O-])Oc3ccc(-c4c(OC(C)=O)c(OC(C)=O)c(-c5ccc(OC(C)=O)cc5)c(OC(C)=O)c4OC(C)=O)cc3O[C@]2([C@@H](C)CC)C(=O)N1OC(C)=O | – | 27.6 µM | > 50 µM | > 50 µM | 30 µM | 28.5 µM | 28 µM | > 50 µM | > 50 µM | 27.1 µM
17 | OCC(O)C(O)C(O)C(O)/C=N/Nc1nc(O)c(/C=C2\C=Nc3ccccc32)[nH]1 (stereo not given) | > 100 µM | > 100 µM | > 100 µM | > 100 µM | 97.5 µM | > 100 µM | – | > 100 µM | > 100 µM | > 100 µM
18 | O=C1NC2(C=Cc3c(ccc4ccccc34)O2)Oc2ccccc21 (stereo not given) | > 100 µM | > 100 µM | – | 74.1 µM | – | 50.2 µM | 34.5 µM | – | 79.1 µM | 67.5 µM
19 | CC(=O)N(CN1C(=O)CCC1C(=O)O)c1ccccc1Cl (stereo not given) | > 100 µM | > 100 µM | > 100 µM | > 100 µM | > 100 µM | > 100 µM | – | > 100 µM | > 100 µM | > 100 µM
20 | O=P1(c2ccccc2)C2=CCC=CC2C(c2ccccc2)N1Cc1ccccc1 (stereo not given) | 37.6 µM | 32.9 µM | 33.6 µM | – | 27.6 µM | 31.5 µM | 53.5 µM | 34.9 µM | 41.2 µM | 28.8 µM
21 | COP(C)(=O)C(Cc1c[nH]c2ccccc12)NC(=O)OCc1ccccc1 (stereo not given) | > 100 µM | > 100 µM | > 100 µM | > 100 µM | > 100 µM | > 100 µM | – | > 100 µM | > 100 µM | > 100 µM
22 | CC1(C)CC2C(C1=O)C1(C)CCCC2(C)C1=O (stereo not given) | > 100 µM | > 100 µM | > 100 µM | > 100 µM | > 100 µM | > 100 µM | > 100 µM | > 100 µM | – | > 100 µM
